Patent US9890153B2, “Substituted 1H-pyrrolo [2, 3-b] pyridine and 1H-pyrazolo [3, 4-b] pyridine derivatives as salt inducible kinase 2 (SIK2) inhibitors” (Arrien Pharmaceuticals LLC, priority 2012, dated 2018)

Each molecule was assayed against SIK2 (QIK) (SEQ ID NO: 11) (Homo sapiens, UniProt Q9H0K1) (assay: SIK2 kinase assay (radiometric, 10 μM ATP)). Conditions: compounds purchased from vendor library, read-out: SIK2 IC50.
Assay type: biochemical
Experimental: Procedure: Enzyme was incubated with substrate peptide in reaction buffer in the presence and absence of test compounds or Staurosporine. All additions were done on ice, followed by the addition of ATP mix. Wells were uniformly mixed using an Eppendorff plate shaker and incubated at 30° C. for 20 min, and stopped by the addition of 5 μL of 3% phosphoric acid. Volume was increased to 100 μL by adding 0.8% phosphoric acid which was then transferred to PC filter mats (Millipore), pre-equilibrated with 70% ethanol and water. Plates were washed thrice with 100 μL 0.8% phosphoric acid and dried for an hour at 60° C.

SIK2 (QIK) (SEQ ID NO: 11), sequence (Q9H0K1 whole entry): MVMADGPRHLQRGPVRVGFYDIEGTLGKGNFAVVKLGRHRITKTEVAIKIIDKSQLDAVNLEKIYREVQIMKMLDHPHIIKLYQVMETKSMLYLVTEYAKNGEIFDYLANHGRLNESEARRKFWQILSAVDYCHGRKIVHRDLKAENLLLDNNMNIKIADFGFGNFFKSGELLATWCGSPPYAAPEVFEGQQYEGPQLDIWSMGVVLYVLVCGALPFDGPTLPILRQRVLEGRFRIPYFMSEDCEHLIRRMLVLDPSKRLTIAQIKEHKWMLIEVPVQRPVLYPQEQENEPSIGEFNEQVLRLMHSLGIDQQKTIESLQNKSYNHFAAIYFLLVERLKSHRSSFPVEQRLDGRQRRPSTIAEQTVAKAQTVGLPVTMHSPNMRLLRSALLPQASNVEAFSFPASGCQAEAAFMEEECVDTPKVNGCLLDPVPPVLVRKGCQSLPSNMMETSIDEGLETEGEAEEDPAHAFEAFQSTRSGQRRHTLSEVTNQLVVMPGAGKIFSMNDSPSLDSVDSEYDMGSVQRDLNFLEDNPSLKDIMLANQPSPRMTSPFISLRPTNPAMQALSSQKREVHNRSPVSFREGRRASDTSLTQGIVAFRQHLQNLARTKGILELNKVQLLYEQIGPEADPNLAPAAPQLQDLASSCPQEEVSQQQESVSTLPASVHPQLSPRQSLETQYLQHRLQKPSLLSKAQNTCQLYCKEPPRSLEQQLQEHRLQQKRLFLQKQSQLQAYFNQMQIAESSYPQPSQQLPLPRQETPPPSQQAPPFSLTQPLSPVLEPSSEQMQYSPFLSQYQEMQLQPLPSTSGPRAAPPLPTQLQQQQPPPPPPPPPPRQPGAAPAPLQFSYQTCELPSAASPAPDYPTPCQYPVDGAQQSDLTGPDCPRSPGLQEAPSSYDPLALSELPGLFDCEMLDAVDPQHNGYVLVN

With `COc1cc(-c2n[nH]c3nccc(-c4cccc(N(C)C)c4)c23)cc(OC)c1OC` [compound 9, N,N-dimethyl-3-(3-(3,4,5-trimethoxyphenyl)-1H-pyrazolo[3,4-b]pyridin-4-yl)aniline] as the molecule, how does the IC50 read?
The IC50 was over 1000 nM.

With `CNC(=O)c1cccc(-c2ccnc3[nH]nc(-c4cccc(C(F)(F)F)c4)c23)c1` [compound 12, N-methyl-3-(3-(3-(trifluoromethyl)phenyl)-1H-pyrazolo[3,4-b]pyridin-4-yl)benzamide] as the molecule, how does the IC50 read?
The IC50 was over 1000 nM.

`COc1cc(-c2ccnc3[nH]nc(-c4cccc(NS(C)(=O)=O)c4)c23)cc(OC)c1OC` [compound 3, N-(3-(4-(3,4,5-trimethoxyphenyl)-1H-pyrazolo[3,4-b]pyridin-3-yl)phenyl)methanesulfonamide] was tested. Which IC50 did it give?
The IC50 was over 1000 nM.

How did the IC50 turn out when `COc1cccc(-c2ccnc3[nH]nc(-c4cccc(C(F)(F)F)c4)c23)c1` [compound 8, 4-(3-methoxyphenyl)-3-(3-(trifluoromethyl)phenyl)-1H-pyrazolo[3,4-b]pyridine] was run?
The IC50 was over 1000 nM.

With `OCCNC(O)c1cccc(-c2n[nH]c3nccc(-c4cccc(C(F)(F)F)c4)c23)c1` (stereo not drawn) [compound 7, 2-((hydroxy(3-(4-(3-(trifluoromethyl)phenyl)-1H-pyrazolo[3,4-b]pyridin-3-yl)phenyl)methyl)amino)ethanol] as the molecule, how does the IC50 read?
The IC50 was over 1000 nM.

Same assay, conditions: read-out: SIK2 (QIK) (SEQ ID NO: 11) kinase inhibition result

Which IC50 does the source give for `Cc1ncc(-c2cnc3[nH]cc(-c4cccc(F)c4Cl)c3c2)s1` [Example 137, 5-(3-(2-chloro-3-fluorophenyl)-1H-pyrrolo[2,3-b]pyridin-5-yl)-2-methylthiazole] here?
The IC50 was over 100 nM.

Which IC50 does the source give for `Fc1cccc(-c2c[nH]c3nccc(-c4ccsc4)c23)c1Cl` [Example 23, 3-(2-chloro-3-fluorophenyl)-4-(thiophen-3-yl)-1H-pyrrolo[2,3-b]pyridine] here?
The IC50 was over 100 nM.

For `Clc1cccc(-c2c[nH]c3nccc(-c4ccsc4)c23)c1` [Example 47, 3-(3-chlorophenyl)-4-(thiophen-3-yl)-1H-pyrrolo[2,3-b]pyridine], which IC50 is on record?
Its IC50 is over 100 nM.

Which IC50 does the source give for `COc1cc(Cl)ccc1-c1c[nH]c2nccc(-c3ccsc3)c12` [Example 24, 3-(4-chloro-2-methoxyphenyl)-4-(thiophen-3-yl)-1H-pyrrolo[2,3-b]pyridine] here?
The IC50 was over 100 nM.

`c1cc(-c2ccsc2)c2cc[nH]c2n1` [Example 20, 4-(thiophen-3-yl)-1H-pyrrolo[2,3-b]pyridine] was tested. Which IC50 did it give?
Its IC50 is over 1000 nM.

How did the IC50 turn out when `COc1ccccc1-c1c[nH]c2ncc(-c3ccsc3)cc12` [Example 113, 3-(2-methoxyphenyl)-5-(thiophen-3-yl)-1H-pyrrolo[2,3-b]pyridine] was run?
Its IC50 is over 100 nM.

How did the IC50 turn out when `Fc1ccccc1-c1c[nH]c2nccc(-c3ccsc3)c12` [Example 22, 3-(2-fluorophenyl)-4-(thiophen-3-yl)-1H-pyrrolo[2,3-b]pyridine] was run?
Its IC50 is over 1000 nM.

Which IC50 does the source give for `Fc1cc(OC(F)(F)F)ccc1-c1c[nH]c2nccc(-c3ccsc3)c12` [Example 100, 3-(2-fluoro-4-(trifluoromethoxy)phenyl)-4-(thiophen-3-yl)-1H-pyrrolo[2,3-b]pyridine] here?
The IC50 was over 1000 nM.

Which IC50 does the source give for `COc1ccc(-c2c[nH]c3nccc(-c4ccsc4)c23)cc1` [Example 25, 3-(4-methoxyphenyl)-4-(thiophen-3-yl)-1H-pyrrolo[2,3-b]pyridine] here?
Its IC50 is over 1000 nM.

With `COc1ccc(-c2c[nH]c3nccc(-c4ccsc4)c23)c(OC)n1` [Example 101, 3-(2,6-dimethoxypyridin-3-yl)-4-(thiophen-3-yl)-1H-pyrrolo[2,3-b]pyridine] as the molecule, how does the IC50 read?
Its IC50 is over 100 nM.

`COc1cc(F)ccc1-c1c[nH]c2nccc(-c3ccsc3)c12` [Example 28, 3-(4-fluoro-2-methoxyphenyl)-4-(thiophen-3-yl)-1H-pyrrolo[2,3-b]pyridine] was tested. Which IC50 did it give?
Its IC50 is over 100 nM.

For `CCOc1ccccc1-c1c[nH]c2nccc(-c3ccsc3)c12` [Example 26, 3-(2-ethoxyphenyl)-4-(thiophen-3-yl)-1H-pyrrolo[2,3-b]pyridine], which IC50 is on record?
Its IC50 is over 100 nM.

Which IC50 does the source give for `CN(C)S(=O)(=O)c1ccccc1-c1c[nH]c2nccc(-c3ccsc3)c12` [Example 94, N,N-dimethyl-2-(4-(thiophen-3-yl)-1H-pyrrolo[2,3-b]pyridin-3-yl)benzenesulfonamide] here?
Its IC50 is over 1000 nM.
